From ChEMBL document CHEMBL1201862, “PubChem BioAssay data set” (2004)
The source made the active and inactive calls.

Experiments:
[1] = target: T1, Short transient receptor potential channel 4 (Mus musculus, UniProt Q9QUQ5); assay: calcium entry via TRPC4 opening agents – cell-based, HEK293 TRPC4/mu-opioid, Fluo-4 calcium, dose response (AID 434937); type: functional
T1 sequence (Q9QUQ5 whole entry): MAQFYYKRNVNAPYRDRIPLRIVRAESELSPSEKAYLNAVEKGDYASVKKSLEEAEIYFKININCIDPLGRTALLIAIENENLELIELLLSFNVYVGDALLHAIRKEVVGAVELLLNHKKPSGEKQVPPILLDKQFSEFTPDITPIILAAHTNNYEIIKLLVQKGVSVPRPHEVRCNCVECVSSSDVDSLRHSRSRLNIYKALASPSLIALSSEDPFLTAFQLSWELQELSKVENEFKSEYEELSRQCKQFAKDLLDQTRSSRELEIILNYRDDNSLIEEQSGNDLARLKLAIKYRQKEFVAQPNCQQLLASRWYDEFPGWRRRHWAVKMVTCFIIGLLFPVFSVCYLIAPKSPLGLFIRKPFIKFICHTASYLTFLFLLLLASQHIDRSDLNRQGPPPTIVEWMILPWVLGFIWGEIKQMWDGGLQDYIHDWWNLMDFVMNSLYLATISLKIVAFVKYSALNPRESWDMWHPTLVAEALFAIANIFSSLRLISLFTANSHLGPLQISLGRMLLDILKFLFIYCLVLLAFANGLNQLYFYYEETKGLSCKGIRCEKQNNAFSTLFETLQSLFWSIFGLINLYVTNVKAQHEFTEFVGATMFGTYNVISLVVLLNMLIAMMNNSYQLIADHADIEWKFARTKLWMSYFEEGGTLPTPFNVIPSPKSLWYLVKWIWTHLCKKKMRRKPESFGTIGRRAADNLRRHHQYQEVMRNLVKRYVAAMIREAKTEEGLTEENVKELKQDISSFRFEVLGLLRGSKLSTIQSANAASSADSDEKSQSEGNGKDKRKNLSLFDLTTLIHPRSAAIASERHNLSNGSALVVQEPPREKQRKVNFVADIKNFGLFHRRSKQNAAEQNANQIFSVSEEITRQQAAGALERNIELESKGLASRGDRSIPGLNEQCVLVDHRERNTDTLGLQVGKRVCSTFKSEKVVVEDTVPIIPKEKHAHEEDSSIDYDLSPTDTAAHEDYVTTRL

[2] = target: T2, Replicative DNA helicase DnaB (Mycobacterium tuberculosis, UniProt P9WMR3); assay: DnaB intein splicing inhibitors, dose response, biochemical, cell-free fluorescence (AID 449749); type: functional
T2 sequence (P9WMR3 whole entry): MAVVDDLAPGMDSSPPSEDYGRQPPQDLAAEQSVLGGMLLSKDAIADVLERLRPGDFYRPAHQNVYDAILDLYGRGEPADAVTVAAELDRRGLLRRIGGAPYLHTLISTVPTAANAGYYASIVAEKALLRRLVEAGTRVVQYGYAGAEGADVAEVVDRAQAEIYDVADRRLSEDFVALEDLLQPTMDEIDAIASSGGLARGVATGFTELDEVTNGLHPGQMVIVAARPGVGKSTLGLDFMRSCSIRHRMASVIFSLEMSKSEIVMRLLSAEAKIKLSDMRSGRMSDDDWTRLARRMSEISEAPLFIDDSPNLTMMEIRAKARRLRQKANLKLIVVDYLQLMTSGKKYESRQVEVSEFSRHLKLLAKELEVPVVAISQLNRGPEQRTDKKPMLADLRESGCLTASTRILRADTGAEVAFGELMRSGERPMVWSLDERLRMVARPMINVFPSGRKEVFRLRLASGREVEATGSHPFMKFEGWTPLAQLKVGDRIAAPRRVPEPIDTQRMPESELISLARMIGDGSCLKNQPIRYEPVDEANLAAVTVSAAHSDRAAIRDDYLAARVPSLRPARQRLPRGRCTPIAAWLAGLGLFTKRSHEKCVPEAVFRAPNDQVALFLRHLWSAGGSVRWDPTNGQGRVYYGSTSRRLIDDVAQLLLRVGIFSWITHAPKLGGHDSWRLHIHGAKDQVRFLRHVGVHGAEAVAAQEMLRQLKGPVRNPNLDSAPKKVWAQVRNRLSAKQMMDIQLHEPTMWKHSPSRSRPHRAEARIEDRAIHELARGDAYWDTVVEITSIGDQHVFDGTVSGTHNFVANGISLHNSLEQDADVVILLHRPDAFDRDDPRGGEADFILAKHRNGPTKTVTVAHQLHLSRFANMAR

[3] = test system: Streptococcus; assay: GAS UMAA2166 growth inhibition – luminescence, BacTiterGlo, counter-screen for streptokinase expression inhibitor project, dose response (AID 1915); type: functional, organism-based;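 further: potency for reduction of bacterial viability or growth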
[4] = target: T3, Streptokinase A (Streptococcus pyogenes serotype M1, UniProt P10520); assay: viability-normalized secreted streptokinase activity reduction – plasminogen activation absorbance, OD405, dose response (AID 1914); type: functional, Streptococcus pyogenes M1 GAS;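 further: secreted streptokinase activity via plasminogen activation per viability signal from cell pellet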
T3 sequence (P10520 whole entry): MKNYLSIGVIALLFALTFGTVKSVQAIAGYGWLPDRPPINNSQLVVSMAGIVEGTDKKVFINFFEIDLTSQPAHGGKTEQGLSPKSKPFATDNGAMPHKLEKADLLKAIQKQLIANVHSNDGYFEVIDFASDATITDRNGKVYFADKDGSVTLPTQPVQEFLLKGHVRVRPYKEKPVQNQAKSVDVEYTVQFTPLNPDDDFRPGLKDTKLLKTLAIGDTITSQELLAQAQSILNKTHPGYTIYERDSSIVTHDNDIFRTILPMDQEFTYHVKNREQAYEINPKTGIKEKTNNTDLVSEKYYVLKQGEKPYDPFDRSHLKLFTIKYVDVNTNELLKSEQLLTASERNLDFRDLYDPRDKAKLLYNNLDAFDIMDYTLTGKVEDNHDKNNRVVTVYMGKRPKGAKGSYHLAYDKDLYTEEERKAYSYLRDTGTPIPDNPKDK

[5] = target: Induced myeloid leukemia cell differentiation protein Mcl-1 (Homo sapiens, UniProt Q07820); type: functional
Chain of Induced myeloid leukemia cell differentiation protein Mcl-1 (Q07820 whole entry): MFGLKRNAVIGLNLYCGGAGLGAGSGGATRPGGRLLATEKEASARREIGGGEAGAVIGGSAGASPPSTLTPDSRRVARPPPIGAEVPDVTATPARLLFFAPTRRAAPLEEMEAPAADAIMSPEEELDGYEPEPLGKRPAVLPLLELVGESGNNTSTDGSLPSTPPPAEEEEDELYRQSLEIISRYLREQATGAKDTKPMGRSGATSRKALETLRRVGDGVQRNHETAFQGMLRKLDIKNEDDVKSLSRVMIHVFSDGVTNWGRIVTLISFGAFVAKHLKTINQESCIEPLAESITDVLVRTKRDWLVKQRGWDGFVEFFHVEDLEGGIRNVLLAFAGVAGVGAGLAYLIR

[6] = target: T4, Protein RecA (Mycobacterium tuberculosis, UniProt P9WHJ3); assay: Fluorescence Cell-Free Homogeneous Dose Retest to Identify Inhibitors of RecA-Intein Splicing Activity. [Related pubchem assays (depositor defined):AID2097, AID2223, AID489010, AID492950]; type: functional
T4 sequence (P9WHJ3 whole entry): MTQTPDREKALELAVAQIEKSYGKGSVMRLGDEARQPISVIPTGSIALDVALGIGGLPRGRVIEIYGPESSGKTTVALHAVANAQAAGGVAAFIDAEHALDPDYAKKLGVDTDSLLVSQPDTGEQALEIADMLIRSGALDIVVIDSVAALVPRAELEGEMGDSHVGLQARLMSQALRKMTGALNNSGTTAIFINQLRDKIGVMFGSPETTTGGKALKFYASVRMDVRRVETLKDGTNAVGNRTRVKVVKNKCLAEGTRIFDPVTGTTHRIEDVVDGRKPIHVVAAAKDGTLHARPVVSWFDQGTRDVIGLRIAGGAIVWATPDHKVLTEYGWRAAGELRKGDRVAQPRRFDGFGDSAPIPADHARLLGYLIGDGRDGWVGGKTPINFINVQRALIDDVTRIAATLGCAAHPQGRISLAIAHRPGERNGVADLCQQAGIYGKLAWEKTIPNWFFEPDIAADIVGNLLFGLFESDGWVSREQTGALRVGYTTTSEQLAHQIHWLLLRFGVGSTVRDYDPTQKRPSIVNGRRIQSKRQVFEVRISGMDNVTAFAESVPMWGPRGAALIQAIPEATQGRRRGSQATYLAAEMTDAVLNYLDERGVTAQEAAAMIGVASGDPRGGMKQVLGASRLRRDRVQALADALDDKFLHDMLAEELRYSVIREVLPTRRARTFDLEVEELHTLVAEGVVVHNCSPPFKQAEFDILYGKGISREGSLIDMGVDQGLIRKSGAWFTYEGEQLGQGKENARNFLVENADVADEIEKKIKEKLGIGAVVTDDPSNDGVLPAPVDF

[7] = test system: Streptococcus sp. 'group A'; assay: Streptococcus pyogenes SK(-)GAS viability under kanamycin – luminescence, BacTiterGlo, confirmation, counter-screen for streptokinase expression inhibitor project, dose response (AID 1900); type: functional, organism-based
[8] = viability of PTEN-deleted HCT116 cells – cell-based, HCT116 PTEN knockout, dose response (AID 1047); type: functional;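 further: HCT116 colon tumor cells with PTEN knocked out; cells exposed to compound for 60 hours before readout; potency for loss of cell viability measured by luminescence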
[9] = test system: Vero; assay: cells; type: functional; conditions: Chlorocebus sabaeus
[10] = viability of HCT116 lacking mutant beta-catenin – cell-based, human colon tumor, dose response (AID 1045); type: functional;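 further: HCT116 colon tumor cells with beta catenin knocked out; cells exposed to compound for 60 hours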
[11] = Luminescence Cell-Based Dose Confirmation HTS to Identify Inhibitors of Platelet Dense Granule Release. [Related pubchem assays: 1663 (Primary HTS), 1678 (Summary of Project)]; type: functional
[12] = target: Luciferin 4-monooxygenase (Photinus pyralis, UniProt P08659); assay: inhibition of purified Photinus pyralis luciferase – biochemical, luminescence, dose response (AID 1891)
Chain of Luciferin 4-monooxygenase (P08659 whole entry): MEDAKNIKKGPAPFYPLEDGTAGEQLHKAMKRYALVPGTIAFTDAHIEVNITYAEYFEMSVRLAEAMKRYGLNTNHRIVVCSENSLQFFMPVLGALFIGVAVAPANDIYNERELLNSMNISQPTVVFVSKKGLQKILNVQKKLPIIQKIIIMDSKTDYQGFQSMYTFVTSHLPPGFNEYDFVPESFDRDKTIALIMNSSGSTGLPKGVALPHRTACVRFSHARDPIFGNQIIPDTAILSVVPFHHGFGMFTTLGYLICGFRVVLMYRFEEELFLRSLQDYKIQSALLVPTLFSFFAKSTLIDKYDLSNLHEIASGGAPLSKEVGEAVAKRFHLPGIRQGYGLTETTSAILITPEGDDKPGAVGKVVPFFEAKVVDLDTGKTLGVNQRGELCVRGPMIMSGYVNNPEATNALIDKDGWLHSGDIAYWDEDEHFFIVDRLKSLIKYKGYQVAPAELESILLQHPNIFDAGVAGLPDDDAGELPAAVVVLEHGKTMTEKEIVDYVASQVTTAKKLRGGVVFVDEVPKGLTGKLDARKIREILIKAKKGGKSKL

[13] = target: T5, Ubiquitin-conjugating enzyme E2 N (Homo sapiens, UniProt P61088); type: functional;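 further: Dose-response confirmation in a TR-FRET assay detecting UBC13-driven polyubiquitin chain formation, inhibition measured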
T5 sequence (P61088 whole entry): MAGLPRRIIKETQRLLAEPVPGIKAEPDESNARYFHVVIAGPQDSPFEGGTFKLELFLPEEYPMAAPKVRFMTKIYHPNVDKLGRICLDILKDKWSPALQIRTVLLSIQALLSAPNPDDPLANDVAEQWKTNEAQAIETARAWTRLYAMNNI

[14] = target: T6, Voltage-gated N-type calcium channel alpha-1B subunit/Amyloid beta A4 precursor protein-binding family A member 1 (Homo sapiens, UniProt Q00975+Q02410); type: protein assay
T6 sequence (Q00975 whole entry): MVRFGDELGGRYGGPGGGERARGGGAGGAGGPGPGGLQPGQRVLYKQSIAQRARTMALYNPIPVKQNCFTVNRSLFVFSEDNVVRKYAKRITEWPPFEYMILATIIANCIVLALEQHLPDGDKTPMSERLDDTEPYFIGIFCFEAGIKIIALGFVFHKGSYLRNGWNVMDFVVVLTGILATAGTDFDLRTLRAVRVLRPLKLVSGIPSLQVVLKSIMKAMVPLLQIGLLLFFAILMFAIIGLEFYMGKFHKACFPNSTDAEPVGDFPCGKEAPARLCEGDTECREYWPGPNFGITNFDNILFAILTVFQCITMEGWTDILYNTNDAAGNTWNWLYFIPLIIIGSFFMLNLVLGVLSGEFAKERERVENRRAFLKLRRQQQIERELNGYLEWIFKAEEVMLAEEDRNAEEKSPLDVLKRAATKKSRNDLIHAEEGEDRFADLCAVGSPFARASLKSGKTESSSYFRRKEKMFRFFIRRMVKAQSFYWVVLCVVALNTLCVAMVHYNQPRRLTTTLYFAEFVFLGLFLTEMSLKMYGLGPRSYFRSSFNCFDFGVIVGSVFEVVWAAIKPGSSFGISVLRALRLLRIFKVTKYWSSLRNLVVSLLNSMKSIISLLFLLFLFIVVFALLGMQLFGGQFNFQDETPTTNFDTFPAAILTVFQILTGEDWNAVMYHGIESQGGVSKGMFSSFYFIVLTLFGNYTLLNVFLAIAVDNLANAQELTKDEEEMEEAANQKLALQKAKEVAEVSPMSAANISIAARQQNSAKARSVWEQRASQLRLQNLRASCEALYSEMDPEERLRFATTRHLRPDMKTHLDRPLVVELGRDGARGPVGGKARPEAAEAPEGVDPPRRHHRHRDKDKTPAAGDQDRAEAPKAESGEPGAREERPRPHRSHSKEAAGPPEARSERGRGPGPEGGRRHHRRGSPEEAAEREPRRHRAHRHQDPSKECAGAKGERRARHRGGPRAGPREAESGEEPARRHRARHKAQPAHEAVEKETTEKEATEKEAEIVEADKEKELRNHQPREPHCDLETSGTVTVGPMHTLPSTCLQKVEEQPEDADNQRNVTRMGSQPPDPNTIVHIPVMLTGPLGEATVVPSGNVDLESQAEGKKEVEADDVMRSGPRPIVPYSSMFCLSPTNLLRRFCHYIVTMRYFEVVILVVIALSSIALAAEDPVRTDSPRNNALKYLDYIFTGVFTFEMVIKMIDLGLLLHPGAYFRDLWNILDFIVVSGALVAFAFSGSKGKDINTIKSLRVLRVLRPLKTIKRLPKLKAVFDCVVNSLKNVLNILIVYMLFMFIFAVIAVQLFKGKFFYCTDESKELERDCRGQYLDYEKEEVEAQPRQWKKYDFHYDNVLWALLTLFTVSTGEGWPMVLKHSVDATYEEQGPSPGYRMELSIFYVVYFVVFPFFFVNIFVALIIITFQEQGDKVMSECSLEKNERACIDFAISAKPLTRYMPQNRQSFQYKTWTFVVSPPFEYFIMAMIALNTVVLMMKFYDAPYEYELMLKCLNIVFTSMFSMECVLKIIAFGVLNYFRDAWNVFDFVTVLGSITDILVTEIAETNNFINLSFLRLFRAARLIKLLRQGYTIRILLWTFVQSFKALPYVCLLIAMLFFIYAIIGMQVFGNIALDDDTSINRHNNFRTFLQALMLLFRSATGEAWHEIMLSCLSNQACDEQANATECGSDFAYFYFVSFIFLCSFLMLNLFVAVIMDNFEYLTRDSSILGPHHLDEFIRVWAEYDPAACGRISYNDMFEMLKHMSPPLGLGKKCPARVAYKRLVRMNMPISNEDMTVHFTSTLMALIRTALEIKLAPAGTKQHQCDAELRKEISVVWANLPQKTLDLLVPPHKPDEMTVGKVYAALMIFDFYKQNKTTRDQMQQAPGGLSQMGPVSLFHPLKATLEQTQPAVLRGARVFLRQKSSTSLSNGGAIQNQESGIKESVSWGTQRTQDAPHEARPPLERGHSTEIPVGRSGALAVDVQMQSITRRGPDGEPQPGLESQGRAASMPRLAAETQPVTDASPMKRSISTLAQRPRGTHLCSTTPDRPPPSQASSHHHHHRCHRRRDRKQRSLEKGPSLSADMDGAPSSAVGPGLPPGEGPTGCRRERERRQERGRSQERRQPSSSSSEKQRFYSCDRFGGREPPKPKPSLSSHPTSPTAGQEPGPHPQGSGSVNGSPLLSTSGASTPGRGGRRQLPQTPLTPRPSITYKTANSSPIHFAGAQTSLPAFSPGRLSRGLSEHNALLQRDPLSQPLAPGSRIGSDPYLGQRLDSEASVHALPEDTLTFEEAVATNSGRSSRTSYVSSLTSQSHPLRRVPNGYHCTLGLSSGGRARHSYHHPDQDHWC
T6 sequence (Q02410 whole entry): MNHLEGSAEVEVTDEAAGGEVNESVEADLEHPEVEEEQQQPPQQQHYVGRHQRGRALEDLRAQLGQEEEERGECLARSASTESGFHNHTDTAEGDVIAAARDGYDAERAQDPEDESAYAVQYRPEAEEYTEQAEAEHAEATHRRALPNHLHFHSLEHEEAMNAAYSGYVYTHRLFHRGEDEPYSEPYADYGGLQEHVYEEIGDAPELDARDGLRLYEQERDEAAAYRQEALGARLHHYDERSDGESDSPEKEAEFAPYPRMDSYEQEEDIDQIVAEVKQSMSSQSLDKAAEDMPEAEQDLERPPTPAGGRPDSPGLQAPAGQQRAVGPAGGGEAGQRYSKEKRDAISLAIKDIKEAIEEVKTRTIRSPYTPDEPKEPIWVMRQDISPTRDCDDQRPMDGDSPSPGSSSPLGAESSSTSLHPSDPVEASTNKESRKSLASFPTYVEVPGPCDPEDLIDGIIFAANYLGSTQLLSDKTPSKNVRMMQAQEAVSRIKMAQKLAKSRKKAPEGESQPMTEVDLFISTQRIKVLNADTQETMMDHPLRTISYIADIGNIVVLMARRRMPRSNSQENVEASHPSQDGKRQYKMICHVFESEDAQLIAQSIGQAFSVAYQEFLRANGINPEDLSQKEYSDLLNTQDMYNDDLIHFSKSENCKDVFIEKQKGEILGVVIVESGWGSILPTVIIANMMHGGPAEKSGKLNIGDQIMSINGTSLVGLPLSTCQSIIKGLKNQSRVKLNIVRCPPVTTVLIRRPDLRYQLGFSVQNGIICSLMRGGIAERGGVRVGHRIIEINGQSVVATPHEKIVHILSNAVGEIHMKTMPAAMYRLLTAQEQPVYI

[15] = target: T6, Voltage-gated N-type calcium channel alpha-1B subunit/Amyloid beta A4 precursor protein-binding family A member 1; type: protein assay; remark: listed apart in the source
[16] = test system: H9c2; assay: cells; type: functional, cell-based; conditions: Rattus norvegicus, H9c2, Myocardium;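 further: confirmatory concentration-response retest of ultra-high-throughput screening hits for modulation of myocardial damage; cell death induced by hydrogen peroxide oxidative stress; compound pretreatment for 60 min then peroxide exposure for 2 h; potency is for protecting the cells against peroxide damage rather than for killing them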
[17] = target: Large T antigen (Simian virus 40, UniProt P03070); type: functional, Betapolyomavirus macacae;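 further: Confirmatory-stage PubChem screen for compounds that inhibit SV40 T antigen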
Chain of Large T antigen (P03070 whole entry): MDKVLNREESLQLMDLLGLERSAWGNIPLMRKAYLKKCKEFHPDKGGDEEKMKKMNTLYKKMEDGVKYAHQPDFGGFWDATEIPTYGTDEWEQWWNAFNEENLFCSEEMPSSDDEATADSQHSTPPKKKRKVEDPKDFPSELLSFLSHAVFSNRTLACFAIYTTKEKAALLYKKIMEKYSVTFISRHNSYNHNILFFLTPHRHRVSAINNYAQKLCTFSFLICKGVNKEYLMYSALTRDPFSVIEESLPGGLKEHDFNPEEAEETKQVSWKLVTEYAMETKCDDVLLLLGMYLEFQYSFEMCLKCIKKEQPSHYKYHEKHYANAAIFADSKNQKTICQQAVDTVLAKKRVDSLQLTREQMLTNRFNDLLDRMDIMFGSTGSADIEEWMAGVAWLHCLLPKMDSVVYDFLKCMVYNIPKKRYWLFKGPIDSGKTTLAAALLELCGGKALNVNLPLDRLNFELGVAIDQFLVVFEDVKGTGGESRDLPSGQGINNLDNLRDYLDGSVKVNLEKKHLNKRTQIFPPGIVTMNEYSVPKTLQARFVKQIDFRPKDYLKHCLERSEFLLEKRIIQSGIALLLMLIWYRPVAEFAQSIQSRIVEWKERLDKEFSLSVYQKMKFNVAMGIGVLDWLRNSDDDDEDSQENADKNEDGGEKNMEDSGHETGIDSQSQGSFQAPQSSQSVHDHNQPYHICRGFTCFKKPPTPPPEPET

**Q.** With `Cn1c(=O)c2c(nc(CN3CCc4ccccc4C3)n2Cc2ccccc2F)n(C)c1=O` as the compound, how does the EC50 [1] read?
**A.** 5.31 µM (active)

**Q.** What does the source list for `CCOC(=O)C1=C(O)c2ccccc2C(=O)/C1=C\c1ccc(CC)cc1`?
**A.** AC50 [2]: 4.44 µM (active); EC50 [3]: 38.1 µM (active); EC50 [4]: > 150 µM (not active); IC50 [5]: 7.19 µM (active); EC50 [6]: 8.86 µM (active); EC50 [7]: 13 µM (active)

**Q.** Which results are given for `CCCc1n[nH]c2c1C(C1CC=CCC1)C(C#N)=C(N)O2` (centres undefined)?
**A.** EC50 [8]: 33.2 µM (active); CC50 [9]: > 25 µM (active); EC50 [10]: 139 µM (active)

**Q.** Which EC50 [1] does the source give for `O=C(CC(=O)c1c(F)cccc1Cl)c1ccccc1O` here?
**A.** 10.6 µM (active)

**Q.** With `O=C(Cc1cccc(F)c1F)NC1CCCN(Cc2ccc(Cl)cc2)C1` (centres undefined) as the compound, how does the EC50 [1] read?
**A.** 0.944 µM (active)

**Q.** What does the source list for `COc1cc(OC)cc(C(=O)NCCCN2CCN(CCCNC(=O)c3cc(OC)cc(OC)c3)CC2)c1`?
**A.** EC50 [11]: > 112 µM (not active); EC50 [12]: > 112 µM (not active); EC50 [1]: 0.188 µM (active)

**Q.** Which IC50 [13] does the source give for `CC(C)CC(C(=O)NC1CCCC1)N(Cc1ccc2c(c1)OCO2)C(=O)c1snc(C(N)=O)c1N` (centres undefined) here?
**A.** > 20 µM (inactive)

**Q.** With `CCN1C(=O)CC(c2ccccc2)N(C2CCCC2)c2nc(Nc3ccc(C(=O)NC4CCN(C)CC4)cc3OC)ncc21` (centres undefined) as the compound, how does the IC50 [13] read?
**A.** > 20 µM (inactive)

**Q.** With `N#Cc1c(O)nsc1Nc1ccccc1Cl` as the compound, how does the IC50 [14] read?
**A.** > 50 µM (inactive)

**Q.** And the IC50 [15]?
**A.** 4.76 µM (active)

**Q.** Which IC50 [13] does the source give for `NC(=O)c1nsc(C(=O)N(c2cccc(F)c2)C(C(=O)NC2CCCC2)c2ccc(O)cc2)c1N` (centres undefined) here?
**A.** > 20 µM (inactive)

**Q.** With `COc1ccccc1CN(Cc1nc(O)c2ccccc2n1)S(=O)(=O)c1ccc2ccccc2c1` as the compound, how does the EC50 [8] read?
**A.** 16.7 µM (active)

**Q.** And the CC50 [9]?
**A.** > 25 µM (active)

**Q.** What about the IC50 [16] of the same compound?
**A.** 20.5 µM (active)

**Q.** What about the EC50 [10] of the same compound?
**A.** 17.4 µM (active)

**Q.** With `O=C(CCS(=O)(=O)c1ccccc1)Nc1ccc(-c2nc3ccccc3s2)cc1` as the compound, how does the IC50 [14] read?
**A.** > 50 µM (inactive)

**Q.** And the IC50 [15]?
**A.** 12.5 µM (active)

**Q.** With `COc1cc(OC)cc(C(=O)NC(=S)NNC(=O)[C@H]2C[C@@H]2c2ccccc2)c1` as the compound, how does the CC50 [9] read?
**A.** 23.8 µM (active)

**Q.** What about the EC50 [1] of the same compound?
**A.** 2.99 µM (active)

**Q.** For `COc1ccc(NC(=O)c2cc3ccc4c5ccccc5[nH]c4c3cc2O)cc1`, which IC50 [14] is on record?
**A.** > 50 µM (inactive)

**Q.** What about the IC50 [15] of the same compound?
**A.** 9.55 µM (active)

**Q.** With `N=C(NC(=O)c1ccccc1)N1CCN(C(c2ccccc2)c2ccccc2)CC1` as the compound, how does the CC50 [9] read?
**A.** > 25 µM (active)

**Q.** For `COc1ccc(OC)c(CCNC(=O)Cn2sc3nc(C)cc(C)c3c2=O)c1`, which EC50 [8] is on record?
**A.** 18.3 µM (active)

**Q.** And the IC50 [14]?
**A.** > 50 µM (inactive)

**Q.** And the IC50 [17]?
**A.** 22.1 µM (active)

**Q.** What about the IC50 [15] of the same compound?
**A.** 5.66 µM (active)

**Q.** What about the EC50 [10] of the same compound?
**A.** 16.7 µM (active)

**Q.** For `CCN1C(=O)N/C(=C/c2ccc(C)o2)C1=O`, which IC50 [14] is on record?
**A.** 22.6 µM (active)

**Q.** And the IC50 [15]?
**A.** 3.29 µM (active)

**Q.** With `Cc1ccc(NS(=O)(=O)c2ccc(C(=O)N3CC(C)CC(C)C3)cc2)cc1` (centres undefined) as the compound, how does the EC50 [1] read?
**A.** 4.22 µM (active)
